Consider 8 compounds from patent US7928113B2, “Integrin-binding small molecules” (University of Southern California, priority 2005, dated 2011).

The IC50 is the midpoint of a concentration-inhibition curve. As a reminder, the inhibition is the change of the read-out against control, counted positive when it falls.

Like-named read-outs stand apart in the source and are kept apart here.

Data set [1] is described as follows: Cytotoxicity MTT assay, NCI-H1975. In kind it is cell-based, human. The note with it: human, NCI-H1975 non-small cell lung cancer cells; NCI-H1975, Table 5. An excerpt: (§1) Cell Culture. Human breast cancer cells (MCF-7, αvβ3—, overexpressed wild-type p53, ER+; MDA-MB 468, p53 mutant, ER+; and MDA-MB-435, αvβ3+, p53 mutant, ER−) and non-small cell lung cancer cells H1975 were obtained from the American Type Cell Culture (Rockville, Md. Q4). The HEY human ovarian carcinoma cell line naturally resistant to cisplatin (CDDP) was kindly provided by Dr. Dubeau (University of Southern California Norris Cancer Center). Cells were maintained as monolayer cultures in RPMI 1640 supplemented with 10% fetal bovine serum (Gemini-Bioproducts, Woodland, Calif.) and 2 mmol/L L-glutamine at 37° C. in a humidified atmosphere of 5% CO2. To remove the adherent cells from the flask for passaging and counting, cells were washed with PBS without calcium or magnesium, incubated with a small volume of 0.25% trypsin-EDTA solution (Sigma, St. Louis, Mo.) for 5 to 10 minutes, and washed with culture medium and centrifuged. All experiments were done using cells in exponential cell growth.
(§2) Cytotoxicity Assay. Cytotoxicity was assessed by 3-(4,5-dimethylthiazol-2-yl)-2,5-diphenyltetrazolium bromide (MTT) assay as previously described.^41, 54 Briefly, cells were seeded in 96-well microtiter plates and allowed to attach. Cells were subsequently treated with a continuous exposure to the corresponding drug for 72 hours. An MTT solution (at a final concentration of 0.5 mg/mL) was added to each well and cells were incubated for 4 hours at 37° C. After removal of the medium, DMSO was added and the absorbance was read at 570 nm. All assays were done in triplicate. The IC50 was then determined for each drug from a plot of log (drug concentration) versus percentage of cell kill.
(§3) Cytotoxicity of Selected Compounds in a Panel of Cancer Cell lines. Initially, we tested all compounds in two breast cancer cell lines MDA-MB-435 and MCF7 with high and low αvβ3 expression as well as in HEY ovarian cancer cell line naturally resistant to cisplatin. […] We observed a remarkable specificity for some of the compounds against these cells. […] Considering the fact that αvβ3 mediates migration, attachment and apoptosis of cancer cells, the combination of these novel high affinity antagonists with conventional cytotoxic drugs should show improved therapeutic benefits without additional toxicity.
(§4) NVX-188 was tested for cytotoxicity by MTT assays in two breast cancer cell lines, MDA-MB-435 with high αvβ3 integrin expression and MCF7 with low αvβ3 integrin expression, and an ovarian cancer cell line, HEY, which was used to test for cell growth inhibition evidence. NVX-188 was further evaluated in a lung cancer cell line, NCI-H1975, and a mouse fibroblast, NIH3T3. NVX-188 was not cytotoxic at the highest dose level tested (20 uM).
In general terms: Formazan colour is commonly taken as a measure of viable cells.

Data set [2] can be described thus: Cytotoxicity MTT assay, MDA-MB-435. In kind it is cell-based, human. The note with it: human, MDA-MB-435 breast cancer cells; MDA-MB-435, Table 5.
Text: as §1, §2, §3, §4

The subject of data set [3] is MDA-MB-435 breast cancer cell line. Put plainly: Cytotoxicity MTT assay, MDA-MB-435. In kind it is cell-based, human. The note with it: for inhibition at 20 µM: Homo sapiens, MDA-MB-435, 72 h MTT, read-out: % inhibition of cell growth at 20 μM, 435.
Text: as §1, §2, §3, §4

A short description of data set [4]: Cytotoxicity MTT assay, MCF7. In kind it is cell-based, human. The note with it: human, MCF-7 breast cancer cells; MCF-7, Table 5.
Text: as §1, §2, §3, §4

In data set [5] the test system is MCF7 breast cancer cell line. Put plainly: Cytotoxicity MTT assay, MCF7. The note with it: for inhibition at 20 µM: Homo sapiens, MCF7, 72 h MTT, read-out: % inhibition of cell growth at 20 μM, MCF7. In kind it is cell-based, human.
Text: as §1, §2, §3, §4

A short description of data set [6]: Cytotoxicity MTT assay, HEY. In kind it is cell-based, human. The note with it: human, HEY ovarian carcinoma cells; HEY, Table 5.
Text: as §1, §2, §3, §4

Data set [7] relates to HEY ovarian cancer cell line. In words: Cytotoxicity MTT assay, HEY. The note with it: for inhibition at 20 µM: Homo sapiens, HEY, 72 h MTT, read-out: % inhibition of cell growth at 20 μM, HEY. In kind it is cell-based, human.
Text: as §1, §2, §3, §4

Data set [8] can be described thus: Cytotoxicity MTT assay, NIH3T3. In kind it is cell-based, mouse. The note with it: mouse, NIH3T3 fibroblasts; NIH3T3, Table 5. How it is done: as §2, §3, §4
Another data set deals with T1, αvβ3 integrin (Homo sapiens, UniProt P05106+P06756).
T1 construct: endogenous in cells; host or cells: NCI-H1975 cells (non-small cell lung cancer), whole cells in suspension
Put plainly: Receptor binding assay, competitive binding with 125I-labeled echistatin on the surface of NCI-H1975 cells. The note with it: for IC50 / αvβ3 binding affinity (in words): 125I-echistatin competition, NCI-H1975 cells; for fold higher affinity than the parent compound AV26: ratio of αvβ3 binding IC50 to AV26. How it is done:
Receptor Binding Assay. […] 96-Well multiscreen DV plate (filter pore size: 0.65 μm, Millipore, Billerica, Mass.) was incubated with ^125I-echistatin (50,000 cpm/well) in the presence of increasing concentrations of αvβ3 antagonists. The total incubation volume was adjusted to 200 μL. After the cells were incubated for 3 h at room temperature, the plate was filtered through multiscreen vacuum manifold and washed twice with cold binding buffer. The hydrophilic PVDF filters were collected, and the radioactivity was determined using NaI(Tl) gamma counter (Packard, Meriden, Conn.). The best-fit IC50 values were calculated by fitting the data by nonlinear regression using GraphPad Prism (GraphPad Software, Inc., San Diego, Calif.). Experiments were carried out with triplicate samples.
αvβ3 Binding. Receptor binding affinity of all compounds on the surface of non-small cell lung cancer NCI-H1975 cells was determined in competitive binding experiments using ^125I-labeled echistatin as radioligand and the results are presented in Table 3. […] These compounds represent a novel set of antagonists with diverse structural scaffolds. […] This is an important feature considering the highly electrostatic nature of the RGD peptide binding region of αvβ3. The RGD peptide forms strong electrostatic interactions through its two charged ends with αvβ3 in the αvβ3-cyclic RGD peptide complex crystal structure. Compounds AV3, AV27, and AV32 broadly fall into a RGD mimetic antagonist category, since they have a carboxylate group or amine/amide group, at either ends that can establish similar electrostatic interactions with αvβ3. Additionally, presence of several hydrophilic functional groups on these compounds favors their interaction with the highly electrostatic region of the RGD binding site of αvβ3. Given these interesting structural features, we tested additional structurally close analogues of AV27 and AV32. However, substructure search queries using the core scaffolds of these compounds in our in-house databases yield no close analogues. Structure-activity studies around the core scaffolds of these two compounds might be an alternative option to further optimize their binding affinity towards αvβ3. […] We carried out a limited structure-activity relationship (SAR) analysis on compound AV26 by testing compounds AV34-AV38 in our binding assay (Table 3). The substructure search using the core scaffold of AV26 as a search query retrieved few compounds from our in-house database of 359,224 compounds. The analogues AV34-AV38 were purchased from Chemical Diversity (San Diego, Calif.) and screened for their αvβ3 binding affinity. […] Studies are also underway to selectively deliver cytotoxic agents such as paclitaxel to αvβ3 overexpressing cancers through covalent conjugation.
Receptor binding affinity of NVX-188 was determined through a competitive binding experiment using ^125I-radiolabeled echistatin on NCI-H1975 cells. Increasing concentrations of NVX-188 were added with a fixed amount of echistatin to determine the concentration of NVX-188 that prevents 50% of the echistatin from binding to αvβ3 integrin on the cell surface (i.e., IC50).

Data set [9] concerns NCI-H1975 lung cancer cell-line. Put plainly: Cytotoxicity MTT assay, NCI-H1975. The data set is classed as cell-based, human. The note with it: Table B.
Text: as §1, §2, §3, §4

Data set [10] deals with panel of cancer cell lines. In words: Cytotoxicity MTT assay, statements on the whole panel of cell lines. The note with it: for cytotoxicity (in words): MTT, panel of cell lines, highest dose tested 20 uM; for specificity of cytotoxicity among the cell lines (in words): five cell lines of Table 5. In kind it is cell-based. Here is the method:
as §2, §3, §4

The subject of the next data set is NIH3T3 mouse fibroblast. Put plainly: Cytotoxicity MTT assay, NIH3T3. In kind it is cell-based. The note with it: Table B. How it is done: as §2, §3, §4
The mark [11] stands for this setting: read-out: αvβ3 binding affinity (IC50).

Take `Nc1nc(O)c2nc(CCCNc3ccc(C(=O)NC(CCC(=O)O)C(=O)O)cc3)cnc2n1` (centres unmarked) [AV3]: the IC50 at 72 h in data set [1], in data set [2], in data set [4], in data set [6] and in data set [8] was more than 20 µM in each case. The inhibition at 20 µM in [3], in [5] and in data set [7] was 0% throughout. Also, the IC50 on αvβ3 integrin (setting [11]) came out at 52000 pM.

Turning to `COc1cc(Cl)c(/C=C2\S/C(=N/c3cccc(C(=O)O)c3)N(C)C2=O)cc1OC` [AV38], the IC50 at 72 h in data set [1], in [2], in data set [4], in [6] and in data set [8] was more than 20 µM in each case. The IC50 in data set [9] was more than 20 µM; in data set [3] (Table B) it was more than 20 µM; in data set [5] (Table B), more than 20 µM; in data set [7] (Table B), more than 20 µM; with NIH3T3 mouse fibroblast, more than 20 µM; on αvβ3 integrin (same value restated in pM, read-out: αvβ3 integrin binding affinity (IC50)), 30 pM. Also, the results for the inhibition at 20 µM in data set [3], in [5] and in [7] were 0%, 18% and 0%, respectively. For the same compound, in [10], the “cytotoxicity (in words)” value is on record as “not cytotoxic”. The “αvβ3 binding affinity (in words)” value on αvβ3 integrin is “high-affinity binding characteristics at picomolar concentrations”; at αvβ3 integrin (listed as NVX-188), “active at picomolar concentrations”. Besides, on αvβ3 integrin, the “fold higher affinity than the parent compound AV26” value was 800 fold.

Take `CCOc1ccc(/N=C2/S/C(=C\c3ccc(N(C)C)cc3)C(=O)N2CC)cc1` [AV35]: the IC50 at 72 h in data set [1], in data set [2], in data set [4], in data set [6] and in data set [8] was more than 20 µM throughout. For the same compound, the inhibition at 20 µM in data set [3] turned out to be 26%; in [5], 36%; in data set [7] it was 17%. For the same compound, the IC50 at αvβ3 integrin (setting [11]) is 24000 pM. For the same compound, on αvβ3 integrin, the “fold higher affinity than the parent compound AV26” value came out at 10 fold.

`CCOc1cc(/C=C2\S/C(=N/c3ccc(C(=O)O)cc3)N(C)C2=O)ccc1O` [AV26]: the IC50 at 72 h in data set [1] is more than 20 µM; in data set [2] it was 0.34 ± 0.06 µM; in [4] it was more than 20 µM; in [6], 13 ± 8 µM; in data set [8], more than 20 µM. In addition, the values for the inhibition at 20 µM in data set [3], in [5] and in data set [7] were 94%, 37% and 51%, respectively. In addition, the “fold selectivity for MDA-MB-435 cells as compared to the HEY cells” value in data set [3] (cytotoxicity IC50 ratio) was approximately 40 fold. In addition, the “fold selectivity for MDA-MB-435 cells as compared to the MCF7, NIH3T3, and CRL5908 cells” value in [3] (cytotoxicity IC50 ratio) is “more than 60 fold”. Moreover, in [10], the “cytotoxicity (in words)” value is listed as “considerable cytotoxicity in a breast cancer cell line”. The IC50 at αvβ3 integrin (setting [11]) stood at 240000 pM.

Turning to `Cc1ccc(NC(=O)CN2C(=O)N/C(=C\c3cccn3-c3cccc(C(=O)O)c3)C2=O)cc1` [AV27], the IC50 at 72 h in [1], in data set [2], in data set [4], in [6] and in [8] was more than 20 µM each time. Also, the inhibition at 20 µM is 0% in data set [3], 0% in [5] and 5% in data set [7]. On αvβ3 integrin (setting [11]), the IC50 was determined as 18000 pM.

On to `O=C(O)c1cccc(-c2ccc(/C=N/Nc3nc4nonc4nc3Nc3ccc(F)cc3)o2)c1` [AV30], for which the IC50 at 72 h in [1] is more than 20 µM; in [2], 8 ± 0.5 µM; in data set [4], 19 ± 4 µM; in [6], 7 ± 0.42 µM; in data set [8], 13 ± 3 µM. Also, the inhibition at 20 µM is 71% in data set [3], 52% in data set [5] and 90% in [7]. In data set [10], the “specificity of cytotoxicity among the cell lines (in words)” value was “a profile very similar in MDA-MB-435, HEY, and NIH3T3 cells, but was significantly less active against MCF-7 and NCI-H1975 cells”.

As for `CN(C)c1ccc(/C=C2\SC(=Nc3ccc(O)cc3)NC2=O)cc1` [AV34], the figures for the IC50 at 72 h in [2], in data set [4] and in [6] were 2.8 ± 0.01 µM, more than 20 µM and more than 20 µM, respectively. In addition, the inhibition at 20 µM in data set [3] is 65%; in data set [5], 31%; in data set [7], 25%. The “specificity of cytotoxicity among the cell lines (in words)” value in data set [10] is on record as “A similar trend, but smaller magnitude”.

As for `CS(=O)(=O)Nc1ccc(C2=NN(C(=O)CCCC(=O)O)C(c3ccco3)C2)cc1` (centres unmarked) [AV32], the IC50 at 72 h in data set [1], in data set [2], in data set [4], in data set [6] and in data set [8] was more than 20 µM each time. Besides, the inhibition at 20 µM worked out at 0% in [3], 26% in [5] and 18% in [7]. For the same compound, the IC50 on αvβ3 integrin (setting [11]) came to 605000 pM.
